“And” between values parts separate entries of the source, which are not always exact repeats. Equal values may be shown once. Non-standard residues stand in square brackets, D forms with d. Residues, ends and D or L forms follow the SMILES beside them. *: point of attachment. Dolaproine = CO[C@@H]([C@@H]1CCCN1)[C@@H](C)C(=O)O; Dil = CC[C@H](C)[C@H](NC)[C@@H](CC(=O)O)OC; X1 = C[C@@H](N*)[C@@H](O)c1ccccc1; NMeV = CN[C@H](C(=O)O)C(C)C
Columns and labels:
[1] = test system: MOC1; assay: Cytotoxicity, Alamar Blue assay; assay type: cell-based, murine; conditions: for sensitivity in cell culture, Alamar Blue assay: MOC1 and MOC2 cells, cell viability at 72 hr of drug exposure, CDX3379 at nM dosing
Description: Murine colorectal (MC38 (ENH204-FP)) cancer cell lines were obtained from Kerafast. Murine head and neck MOC1 and MOC2 were generously provided by Dr. R. Uppaluri. CAL27 PIK3CA H1047R expressing cells and 4MOSC1 cells were generated in Dr. Gutkind’s laboratory and previously characterized[42],[55]. […] MC38 cells were cultured in DMEM supplemented with 10% FBS, 1 mM sodium pyruvate (Gibco), 1% non-essential amino acids (Gibco), and 10 mM HEPES (Gibco). MOC1 and MOC2 cells were cultured in IMDM (Lonza)/F-12K nutrient mixture at a 2:1 mixture with 5% FBS, 5 ng/ml EGF (EMD Millipore), 400 ng/ml hydrocortisone (Sigma), and […] insulin (Sigma). On receipt, each cell line was expanded, cryopreserved as low passage stocks, and routinely tested for mycoplasma. Cisplatin (Enzo Biosciences), paclitaxel (Sigma), and MMAE (Concortis) were reconstituted in DMSO. […] Clinical grade cetuximab (Erbitux, Lilly Medical) was obtained from UCSD Moores Cancer Center Pharmacy.
Cells were plated in 96-well plates and exposed to a drug concentration range for 72 h. Alamar Blue was added to the cells and allowed to incubate for 2–4 h at 37 °C. Plates were analyzed using a plate reader with fluorescence measured at 560 nm. Fractional survival was normalized to untreated control cell fluorescent values. Drug IC50 was calculated using Prism software (GraphPad, La Jolla, CA). Cell viability, cytotoxicity and apoptosis were also measured by ApoTox-Glo Triplex Assay (Promega).
measured by Alamar Blue assay. For Alamar Blue assay cytotoxicity, we measured cell viability at 72 hr of […]

[2] = test system: B16 tumors; assay type: in vivo, C57BL/6 mice
Description: At harvest, tumors were isolated, minced, and re-suspended in FBS-free DMEM media supplemented with components of MACs tumor dissociation kit. Tissues were incubated for 15 min at 37 °C and mechanically digested using the gentle MACs Octo dissociator. Tissue suspensions were washed with fresh media and passed through a 100-µm strainer. Samples were split in half for immediate staining or stimulated with the Biolegend Cell Activation Cocktail (with Brefeldin A) for 3 h. Samples were washed with PBS and immediately processed for live/dead cell discrimination using BD LIVE/DEAD™ Fixable Blue Dead Cell Stain Kit. Cells were washed and stained for surface markers for 30 min at 4 °C. Intracellular staining was performed using the eBioscience FOXP3/Transcription Factor Buffer Set from Invitrogen and stained with intracellular antibodies. […] All antibodies were validated by the supplier. All flow cytometry data acquisition was done using BD LSRFortessa and analyzed using FlowJo software. Immune cells were identified by the following characteristics: cytotoxic T cells (CD45+Thy1.2+CD8+), helper T cells (CD45+Thy1.2+CD4+), NK cells (CD45+Thy1.2−NK1.1+).
(§1) FSC-A FSC-H SCC-H Live Dead-Blue
(§2) Representative flow cytometry plots to gate immune cells quantitated in Fig. 4a, b, 4d &
(§3) Supplementary Fig. 10b, c. b) Quantification of tumor immune cell identified by flow cytometry on
(§4) Tumors harvested on day 19 and immune cells characterized by flow cytometry. c) Tumor
(§5) Mice implanted with tumor
Source data are provided in Source Data file.

[3] = test system: B16 tumors; parameters: species or system RAG1 KO mice; conditions: mouse, in vivo
Description: as §1, §2, §3, §4
granzyme B expression. Characterized CD8+ T-cells were further gated for granzyme-B staining
(Clone:GB11). In addition, RNA levelsof tumor granzyme-B was analyzed by qPCR. For
as §5
Log-rank (Mantel-Cox) test.
Source data are provided in Source Data file. […]

[4] = test system: B16 tumors; assay: Subcutaneous tumor therapy with CD8 T cell depletion; assay type: in vivo, C57BL/6 mice; conditions: MMAE conjugate + IR, anti-CD8 antibody 10 mg/kg vs control
Description: (§6) MOC1, B16, LL/2, and MC38 tumor cells were injected subcutaneously into the hindlimbs of 6-week-old female C57BL/6 albino mice in 100 µl of 1:1 Matrigel (BD) and PBS solution. Fractionated IR was delivered focally to the tumor-bearing hindlimbs (3 Gy to MC38 tumors and 5 Gy to LL/2 and B16 tumors) as indicated in figure legends using a PXI X-RAD 225 XL irradiator at maximal dose rate of 3 Gy/min with a beam-conditioning aluminum filter (Precision X-ray Irradiation). For RAG1 KO studies, 6-week-old female Rag1^tm1Mom mice were injected subcutaneously with tumor cells in their hindlimbs (Jackson Labs). For CD8 depletion studies, mice were i.p. injected with anti-CD8 (BioXCell #BE0117) at 10 mg/kg on days −6, −5 and −4 tumor cell implant and then weekly starting on day after tumor cells were injected or control antibody. […] Tumor volumes were measured and calculated using the formula as ½ * length * width^2. Mice were sacrificed when tumor volume reached >1500 mm^3, maximal tumor volume approved on our protocol for subcutaneous tumors.

[5] = test system: MOC2 tumors; assay: Orthotopic syngeneic tongue tumor therapy, tumor volumes; assay type: in vivo, C57BL/6 mice; conditions: single 2.5 nmole i.v. injection
Source text: Orthotopic tongue xenograft tumors were established in 6-week-old NOD SCID mice by injecting 150,000 CAL27 parental (WT) or PIK3CA H1047R-expressing cells. […] On the last day of tumor xenograft measurements, mice were euthanized, tongues resected, imaged, and fixed. […] IR was delivered as 2 parallel opposed fields.
6-week-old C57BL/6 female mice were implanted with 50,000 MOC2 cells into the tongue. […] Five days after treatment, tumors were isolated, minced, and re-suspended in FBS-free DMEM media supplemented with components of MACs tumor dissociation kit. Tissues were incubated for 15 min at 37 °C and mechanically digested using the gentle MACs Octo Dissociator. Digested samples were then passed through a 100-µm strainer to acquire a single-cell. For viability staining, cells were washed in PBS and stained with Cell-ID Cisplatin (DVS Sciences) to a final concentration of 5 μM for 5 min at room temperature. Cisplatin was quenched when cells were washed and stained with the antibody cocktail. Antibodies were prepared in Maxpar cell staining buffer (PBS with 2 mM EDTA, 0.1% BSA, 0.05% NaN3) and incubated with cells for 15 min at room temperature. […] Antibodies (clone in parenthesis) used for CyTOF included B220 (RA3-6B2), CD117(2B8), CD11c (N418), CD25 (3C7), CD4 (RM4-5), CD45 (30-F11), CD8a (53-6.7), MHC-II (M5/114.15.2), NKP46 (29A1.4), TCRb (H57-597) from Fluidigm. […]

[6] = test system: B16 tumors; assay: Subcutaneous tumor therapy, ADC monotherapy, mouse survival; assay type: in vivo, C57BL/6 mice
Description: as §6

CC[C@H](C)[C@@H]([C@@H](CC(=O)N1CCC[C@H]1[C@H](OC)[C@@H](C)C(=O)N[C@H](C)[C@@H](O)c1ccccc1)OC)N(C)C(=O)[C@@H](NC(=O)[C@@H](NC)C(C)C)C(C)C [MMAE, monomethyl auristatin E] (H-[NMeV]V[Dil][Dolaproine]-X1)
IC50 ([1]; MOC1, 72 h drug exposure, Alamar Blue, one value per biological replicate, read-out: IC50 values): 7.93 nM and 8.71 nM and 8.36 nM and 9.59 nM | sensitivity in cell culture, Alamar Blue assay [1]: sensitive

cyclo(RGD)fc-MC-HN-peg8-e9-oPLGC(Me)AG-r9-c-(MC-VC-PABC-MMAE)-CONH2 [ACPP-MMAE]
Flow cytometry, CD4+ ([2]; mouse, in vivo): 0.17 and 0.11 | Flow cytometry, CD45+ ([2]; mouse, in vivo): 9.46 and 7.71 | Flow cytometry, CD45 negative ([2]; mouse, in vivo): 89.90 and 91.80 | Flow cytometry, NK cells ([2]; mouse, in vivo): 0.17 and 0.11 | tumor control in RAG1 KO mice [3]: did not appreciably increase tumor control in RAG1 KO mice compared to IR alone | effect of CD8 T cell depletion on tumor control [4]: abrogated durable tumor control

CDX3379-MMAE: anti-HER3 antibody CDX3379 with 4 MMAE per antibody via MC-VC-PABC linker, labeled with Cy5
sensitivity in cell culture, Alamar Blue assay [1]: sensitive | tumor growth [5]: modest tumor growth delay | anti-tumor activity as measured by mouse survival [6]: modest anti-tumor activity | tumor CD8 T cell infiltration, with IR ([2]; B16 tumors, flow cytometry, drug + IR): significantly increased CD8 tumor cell infiltration | Flow cytometry (Figure 4b) ([2]; without IR, individual tumors): 3.89 and 16.51 and 9.62 | effect of CD8 T cell depletion on tumor control [4]: significantly larger
